In series [1] the test system is Rattus norvegicus. The series is described as follows: Acute ulcerogenic activity in Albino Wistar rat assessed as ulcer index at 18 mg/kg via oral gavage once daily for 3 days. It is filed as toxicity, organism-based. Particulars: in vivo, 72 h, time 3 day.
Series [2] has as its system Rattus norvegicus. The series is described as follows: Antiinflammatory activity in formalin-induced paw edema in Wistar albino rat model assessed as reduction in paw edema volume at 18 mg/kg, po administered once daily via gavage by 7 days. Type of series: functional. The arrangement: scale not given: the % may be the effect or the level left. Particulars: time 7 day.

For a further series, the species on record is Ovis aries. The series can be described thus: Selectivity index, ratio of IC50 for inhibition of ovine COX-1 to IC50 for inhibition of ovine COX-2.
A short description of series [3]: Inhibition of soya bean 15-LOX by enzyme immune assay. Details: species or system Glycine max.
The nature of series [4]: Selectivity index, ratio of IC50 for COX-2 (unknown origin) to IC50 for COX-1 (unknown origin).

Data on twelve molecules can be found in ChEMBL document CHEMBL6092136, “Design, classification, and adverse effects of NSAIDs: A review on recent advancements” (Bioorg Med Chem, 2024).

For `COc1ccc(-n2c(-c3ccc(C)cc3)cs/c2=N\NC(=O)Cn2nc(C)cc2-c2ccc(Cl)cc2)cc1`, the UI with Rattus norvegicus [1] is listed as 0.

For the molecule `CCCn1c(-c2ccc(Cl)cc2)cs/c1=N\NC(=O)Cn1nc(C)cc1C`, the Activity in the series with Rattus norvegicus [2] came to 97.3%.

As for `CSc1nn(C(=O)c2cnn(-c3ccc(S(C)(=O)=O)cc3)c2N)c(N)c1C#N`, the Ratio IC50 in the series filed under Ovis aries came out at 247.

With `CSc1nn(C(=O)c2c(C)nn(-c3ccc(S(N)(=O)=O)cc3)c2N)c(N)c1C#N`, the Ratio IC50 in the series listed under Ovis aries was determined as 247.

The term IC50 denotes the concentration needed to halve the response being measured. In series [3], `Cc1ccc(Cl)c(Nc2ccccc2C(=O)O)c1Cl` displayed a half-maximal inhibitory concentration (IC50) of 5.64 µM.

In the case of `COc1ccc2cc(C(C)C(=O)O/N=C(\N)c3ccc(Cl)cc3)ccc2c1` (configuration not stated), the Ratio IC50 in series [4] was determined as 13.

Regarding `Cc1cc(C)n(C(=O)c2cnn(-c3ccc(S(C)(=O)=O)cc3)c2N)n1`, the Ratio IC50 in the series filed under Ovis aries came to 247.

Consider `COc1ccc2cc(C(C)C(=O)O/N=C(\N)c3ccc(OC)c(OC)c3)ccc2c1` (configuration not stated), for which the Ratio IC50 in series [4] came to 13.

Consider `COc1ccc(/C(N)=N/OC(=O)C(C)c2ccc3cc(OC)ccc3c2)cc1` (configuration not stated), for which, in series [4], the Ratio IC50 worked out at 13.

As for `CCOC(=O)c1cnn(C(=O)c2c(C)nn(-c3ccc(S(C)(=O)=O)cc3)c2N)c1N`, the Ratio IC50 in the series listed under Ovis aries amounted to 247.

Take `CCOC(=O)c1cnn(C(=O)c2cnn(-c3ccc(S(C)(=O)=O)cc3)c2N)c1N`: the Ratio IC50 in the series filed under Ovis aries was 247.

Take `CCOC(=O)c1c(C)nn(C(=O)c2cnn(-c3ccc(S(C)(=O)=O)cc3)c2N)c1N`: in the series filed under Ovis aries, the Ratio IC50 is 247.
